Measured values from US9169252B2 (BRISTOL-MYERS SQUIBB COMPANY, priority 2014, dated 2015).
Like-named read-outs stand apart in the source and are kept apart here.

Experiments:
[1] = system: TLR2 induced IL-6 in peripheral blood mononuclear cells (PBMCs); assay: PBMC TLR2 Induced IL-6 Assay; format: cell-based, human; conditions: Homo sapiens, PBMC, IL-6 by ELISA; for EC50: read-out: Cell EC50; for IC50: read-out: Cell IC50
Description: PBMC TLR2 Induced IL-6 Assay
Peripheral blood mononuclear cells (PBMCs) were isolated from human blood containing the anti-coagulant EDTA (2.5 mM) by centrifugation over a FICOLL® gradient. PBMCs (250000 cells/well) were cultured in assay media (RPMI with 10% heat inactivated FCS) with compounds for 30 minutes at 37° C. in a 5% CO2 incubator. Following pretreatment with compounds, cells were stimulated for 5 hours with 10 µg/ml lipoteichoic acid (Invivogen, San Diego, Calif.), a TLR2 agonist. At the end of the culture, plates were centrifuged at 1800 rpm for 10 minutes to pellet the cells.

[2] = molecular target: IRAK4 (Homo sapiens (Human), UniProt Q9NWZ3); assay: IRAK4 Inhibition Assay; format: biochemical
Description: The assays were performed in U-bottom 384-well plates. […] The reaction was initiated by the combination of IRAK4 with substrates and test compounds. The reaction mixture was incubated at room temperature for 60 min. and terminated by adding 45 μL of 35 mM EDTA to each sample. The reaction mixture was analyzed on the Caliper LABCHIP® 3000 (Caliper, Hopkinton, Mass.) by electrophoretic separation of the fluorescent substrate and phosphorylated product.

[3] = PBMC TLR2 Induced IL-6 Assay, lipoteichoic acid stimulation
[4] = IRAK4 Inhibition Assay, ATP 500 μM, read-out: IRAK4 IC50
[5] = human PBMCs, lipoteichoic acid stimulated
[6] = ATP 500 μM, IRAK4 0.6 nM, read-out: IRAK4 IC50

Chain of IRAK4 (Q9NWZ3 whole entry, species assumed): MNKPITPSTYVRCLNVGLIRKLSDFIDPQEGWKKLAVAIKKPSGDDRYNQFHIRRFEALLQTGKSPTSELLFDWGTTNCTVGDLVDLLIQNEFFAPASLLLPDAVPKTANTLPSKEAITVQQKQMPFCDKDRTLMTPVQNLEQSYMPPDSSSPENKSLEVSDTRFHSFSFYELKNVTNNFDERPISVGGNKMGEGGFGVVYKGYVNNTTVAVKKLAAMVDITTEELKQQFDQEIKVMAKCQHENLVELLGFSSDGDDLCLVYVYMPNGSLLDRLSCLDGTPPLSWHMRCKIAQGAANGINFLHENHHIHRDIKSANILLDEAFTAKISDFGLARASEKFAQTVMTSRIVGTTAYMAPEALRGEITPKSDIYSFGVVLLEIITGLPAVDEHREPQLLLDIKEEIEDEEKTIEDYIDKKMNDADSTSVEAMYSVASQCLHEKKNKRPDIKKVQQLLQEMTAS

| SMILES | EC50 [1, 3] [nM] | IC50 [2, 4] [nM] | IC50 [2, 6] [nM] | other results |
| --- | --- | --- | --- | --- |
| CC(C)(O)[C@H](F)CNC(=O)c1cnc(-n2ccc3cc(C#N)cnc32)cc1NC1CC(F)(F)C1 [Example 53, (R)-6-(5-cyano-1H-pyrrolo[2,3-b]pyridin-1-yl)-4-((3,3-difluorocyclobutyl)amino)-N-(2-fluoro-3-hydroxy-3-methylbutyl)nicotinamide] | 271 | 1.9 |  |  |
| CC(C)(F)CCNc1cc(-n2ncc3cc(C#N)cnc32)ncc1C(=O)NC[C@@H](F)C(C)(C)O [Example 600] |  |  | 5.3 | IC50 [1, 5]: 477 nM |
| CC(C)Nc1cc(-n2ccc3cc(C#N)cnc32)ncc1C(=O)N[C@H]1CC[C@](O)(c2ccccn2)CC1 [Example 178, 6-(5-cyano-1H-pyrrolo[2,3-b]pyridin-1-yl)-N-((1s,4s)-4-hydroxy-4-(pyridin-2-yl)cyclohexyl)-4-(isopropylamino)nicotinamide] | 100 | 3.7 |  |  |
| CC(C)Nc1cc(-n2ncc3cc(Cl)cnc32)ncc1C(=O)NCC(F)C1(O)COC1 (stereo not shown) [Example 258] |  | 6.3 |  | IC50 [1, 3]: 42 nM |
| CC(C)(O)[C@H](F)CNC(=O)c1cnc(-n2ccc3cc(C#N)cnc32)cc1Nc1ccc(-n2cncn2)cc1 [Example 68] | 30 | 2.1 |  |  |
| CC(C)Nc1cc(-n2ccc3cc(F)cnc32)ncc1C(=O)NC[C@@H](F)C(C)(C)O [Example 38, (R)-6-(5-fluoro-1H-pyrrolo[2,3-b]pyridin-1-yl)-N-(2-fluoro-3-hydroxy-3-methylbutyl)-4-(isopropylamino)nicotinamide] | 84 | 1.6 |  |  |
| CC(C)(O)[C@H](F)CNC(=O)c1cnc(-n2ccc3cc(C#N)cnc32)cc1NC1CCCC(F)(F)C1O (single isomer, unassigned) [Example 112] | 159 |  |  | IC50 ([2]; IRAK4 IC50): 4.4 nM |
| CC(C)(O)CNc1cc(-n2ccc3cncnc32)ncc1C(=O)NC[C@@H](F)C(C)(C)O [Example 42, (R)—N-(2-fluoro-3-hydroxy-3-methylbutyl)-4-((2-hydroxy-2-methylpropyl)amino)-6-(7H-pyrrolo[2,3-d]pyrimidin-7-yl)nicotinamide] | 612 | 13.6 |  | IC50 [1, 3]: 940 nM |
| C[C@@H](CO)Nc1cc(-n2ccc3cc(C#N)cnc32)ncc1C(=O)NCCNS(C)(=O)=O [Example 478] |  |  | 4.7 | EC50 [1, 5]: 462 nM; IC50 [1, 5]: 805 nM |
| CC(C)(CNc1cc(-n2ncc3cc(Cl)cnc32)ncc1C(=O)NC[C@@H](F)C(C)(C)O)OC(F)F [Example 603] |  |  | 6.7 | IC50 [1, 5]: 321 nM |
| COCCn1cc(Nc2cc(-n3ncc4cc(Cl)cnc43)ncc2C(=O)NC[C@@H](F)C(C)(C)O)cn1 [Example 364] |  | 2.6 |  | IC50 [1, 3]: 83 nM |
| CC(CCF)Nc1cc(-n2ccc3cc(C#N)cnc32)ncc1C(=O)NC[C@@H](F)C(C)(C)O (single isomer, unassigned) [Example 426] |  |  | 1.6 | EC50 [1, 5]: 51 nM |
| C[C@@H](CF)Nc1cc(-n2ncc3cc(C#N)cnc32)ncc1C(=O)NC[C@@H](F)C(C)(C)O [Example 121, 6-(5-cyano-1H-pyrazolo[3,4-b]pyridin-1-yl)-N—((R)-2-fluoro-3-hydroxy-3-methylbutyl)-4-(((S)-1-fluoropropan-2-yl)amino) nicotinamide] | 112 | 5.2 |  |  |
| Cn1cc(-c2ccc(Nc3cc(-n4ncc5cc(C#N)cnc54)ncc3C(=O)NC[C@@H](F)C(C)(C)O)cc2)cn1 [Example 531] |  |  | 2.2 | IC50 [1, 5]: 67 nM |
| CC(C)n1cc(Nc2cc(-n3cnc4cc(Cl)cnc43)ncc2C(=O)NC[C@@H](F)C(C)(C)O)cn1 [Example 362] |  | 4.3 |  | IC50 [1, 3]: 486 nM |
| CC(C)Nc1cc(-n2ncc3cc(C#N)c(N)nc32)ncc1C(=O)NC[C@@H](C)F [Example 328] |  | 10 |  | IC50 [1, 3]: 11 nM |

| SMILES | EC50 [1, 3] [nM] | IC50 [2, 4] [nM] | IC50 [2, 6] [nM] | other results |
| --- | --- | --- | --- | --- |
| CC(C)(O)[C@H](F)CNC(=O)c1cnc(-n2ncc3cc(Cl)cnc32)cc1Nc1cnn(CCC#N)c1 [Example 377] |  | 2.7 |  | IC50 [1, 3]: 440 nM |
| CC(C)Nc1cc(-n2ncc3cc(C#N)cnc32)ncc1C(=O)NC1CCN(C(=O)C(C)C)CC1 [Example 273] |  | 18.6 |  | IC50 [1, 3]: 94 nM |
| CC(C)(F)[C@H](F)CNC(=O)c1cnc(-n2cnc3cc(C#N)cnc32)cc1Nc1cnn(CC(F)F)c1 [Example 403] |  |  | 2.5 | IC50 [1, 5]: 147 nM |
| CC(C)Nc1cc(-n2ncc3cc(C#N)cnc32)ncc1C(=O)Nc1ccc(N(C)C)nc1 [Example 228] | 163 | 6.9 |  |  |
| CC(C)(O)[C@H](F)CNC(=O)c1cnc(-n2ncc3cc(C#N)cnc32)cc1NC1CC(F)(F)C1 [Example 644] |  |  | 4.3 | IC50 [1, 5]: 89 nM |
| CC(C)Nc1cc(-n2ncc3cc(C#N)c(N)nc32)ncc1C(=O)NC[C@@H](F)C(C)(C)O [Example 262] |  | 1.3 |  | IC50 [1, 3]: 48 nM |
| CC(C)Nc1cc(-n2ccc3cncnc32)ncc1C(=O)NCCC(C)(C)O [Example 44, N-(3-hydroxy-3-methylbutyl)-4-(isopropylamino)-6-(7H-pyrrolo[2,3-d]pyrimidin-7-yl)nicotinamide] | 98 | 4.2 |  |  |
| CC(C)Nc1cc(-n2ccc3cc(C#N)cnc32)ncc1C(=O)N[C@@H]1CC=C(c2ccncc2)CC1 [Example 184, (S)-6-(5-Cyano-1H-pyrrolo[2,3-b]pyridin-1-yl)-4-(isopropylamino)-N-(4-(pyridin-4-yl)cyclohex-3-en-1-yl)nicotinamide] | 436 | 5.5 |  |  |
| COc1cnc(NC(=O)c2cnc(-n3ncc4cc(C#N)cnc43)cc2NC(C)C)cn1 [Example 564] |  |  | 20.1 | EC50 [1, 5]: 659 nM |
| CC(C)Nc1cc(-n2ccc3cc(CNC(=O)C4CCOC4)cnc32)ncc1C(=O)NC[C@@H](F)C(C)(C)O (stereo partly shown) [Example 520] |  |  | 10.5 | IC50 [1, 5]: 347 nM |
| CC(C)(O)[C@H](F)CNC(=O)c1cnc(-n2ncc3cc(C#N)cnc32)cc1N[C@H]1CC[C@H](C(C)(C)O)CC1 [Example 606, 6-(5-Cyano-1H-pyrazolo[3,4-b]pyridin-1-yl)-N—((R)-2-fluoro-3-hydroxy-3-methylbutyl)-4-(((1r,4R)-4-(2-hydroxypropan-2-yl)cyclohexyl)amino)nicotinamide] |  |  | 4 | EC50 [1, 5]: 127 nM |
| CCC(O)(CC)[C@H](F)CNC(=O)c1cnc(-n2ncc3cncnc32)cc1NC(C)C [Example 149, (R)—N-(3-ethyl-2-fluoro-3-hydroxypentyl)-4-(isopropylamino)-6-(1H-pyrazolo[3,4-d]pyrimidin-1-yl)nicotinamide] | 239 | 9.3 |  |  |
| CC(C)Nc1cc(-n2ccc3cc(C#N)cnc32)ncc1C(=O)N[C@H]1CC[C@H](C(=O)NC2CC2)CC1 [Example 91, 6-(5-cyano-1H-pyrrolo[2,3-b]pyridin-1-yl)-N-((trans)-4-(cyclopropylcarbamoyl)cyclohexyl)-4-(isopropylamino)nicotinamide] | 32 | 2 |  |  |
| CC(C)Nc1cc(-n2ncc3cc(C#N)cnc32)ncc1C(=O)NC[C@@H](F)C(=O)N1CCN(S(C)(=O)=O)CC1 [Example 257] | 136 | 8.9 |  |  |
| COC(=O)N1CC[C@@H](Nc2cc(-n3ccc4cc(C#N)cnc43)ncc2C(=O)NC[C@@H](F)C(C)(C)O)C1 [Example 474] |  |  | 1.2 | EC50 [1, 5]: 77 nM; IC50 [1, 5]: 315 nM |
| CC(C)Nc1cc(-n2ncc3cc(C#N)cnc32)ncc1C(=O)NCCN1CCOCC1 [Example 204] | 174 | 4.9 |  |  |
